From patent publication US10383867B2, “Quinoline derivatives and their use for treating endoplasmic reticulum stress-related diseases and disorders” (priority 2015, dated 2019)

Experiments:
[1] = system: HEK293 cells / N2a cells under ER stress; test: ER stress cell rescue assay (protection against thapsigargin- or hydrogen peroxide-induced cell-death); assay type: cell-based, human (HEK293), mouse (N2a); conditions: cell rescue from induced ER stress; cell line of the EC50 not specified
Description: Protection against Thapsigargin (TG)-induced Cell-death. Human embryonic kidney (HEK293) cells were grown in Dulbecco's Modified Eagle's Medium (DMEM) with 10% FBS and 1% antibiotic antimycotic solution (ABAM). Mouse neuroblastoma (N2a) cells were grown in 1:1 DMIEM:OPTI-MEM® with 5% FBS and 1% ABAM. All cells were grown in 10% CO2 in a humidified environment of the incubator. Cells grown in 96-well plates were exposed to a test compound (20 μM) for 2 hrs before addition of thapsigargin (15 μM for HEK293 cells and 1 μM for N2a cells) to induce ER stress. After incubation in cell-culture incubator for 24 hrs, ALAMARBLUE® regent (10% v/v) was added to the wells. Fluorescence reading was taken 2 hrs after the addition of the ALAMARBLUE® regent. Cell-viability was calculated as a percentage of relative fluorescence unit (RFU) compared to control.
Protection against Hydrogen Peroxide-induced Cell-death. N2a cell grown in 96-well plates were exposed to a test compound (40 μM) for 2 hrs before addition of hydrogen peroxide (200 μM). After 40 min of incubation with hydrogen peroxide, ALAMARBLUE® regent (10% v/v) was added to the wells. Fluorescence reading was taken 2 hrs after the addition of the ALAMARBLUE® regent. Cell-viability was calculated as a percentage of relative fluorescence unit (RFU) compared to control.
The results are summarized in Table 1, where, for ER stress cell rescue ECso values, A represents a value smaller than 20 μM, B represents a value between 20 μM to 100 μM, C represents a value greater than 100 μM.

SERCA = test: Activation of SERCA (NADH-linked, enzyme-coupled ATPase assay); assay type: biochemical; conditions: for Increase in Vmax at 10 μM: SERCA ATPase, compound at 10 μM; for EC50: SR vesicles, concentration for 50% activation of the maximum Vmax
Description: Test compounds were characterized over a range of concentrations using an NADH-linked, enzyme-coupled ATPase assay. Each well contained […] of SR vesicles (optimized for skeletal or cardiac SR, respectively), 50 mM MOPS (pH 7.0), 100 mM KCl, 5 mM MgCl2, 1 mM EGTA, 0.2 mM NADH, 1 mM phosphoenol pyruvate, 5 IU pyruvate kinase, 5 IU lactate dehydrogenase, and […] A23187 (a calcium ionophore), and CaCl2 was added to set free [Ca^2+] to the specific values. The assay was started upon addition of ATP at a final concentration of 5 mM, and read in a SpectraMax Plus microplate spectrophotometer and the ATPase activities were fitted using the Hill function. ECso values were determined as the concentrations of the test compounds that were required for 50% activation of the maximum Vmax.
The biological results are summarized in Table 1, wherein, for SERCA ATPase EC50 values, A represents a value smaller than 20 μM, B represents a value between 20 μM to 100 μM, C represents a value greater than 100 μM; and for increases in Vmax at 10 μM, A′ represents an increase greater than 50%, B′ represents an increase between 20 to 50%, and C′ represents an increase no greater than 20%.

Structure (SMILES)	EC50 (SERCA) [µM]	EC50 [1] [µM]	Increase in Vmax at 10 μM (SERCA)
Cc1ccc2cccc(NCc3ccc(Br)s3)c2n1 [C3, N-((5-Bromothiophen-2-yl)methyl)-2-methylquinolin-8-amine]	< 20	< 20	B′ (B′ represents an increase between 20 to 50%)
Cc1ccc2cccc(/C=C/c3ccc(OC(C)C)cc3)c2n1 [A1, (E)-8-(Isopropoxystyryl)-2-methylquinoline]	–	< 20	–
Cc1ccc2cccc(-c3nc(-c4ccc(OC(C)C)cc4)no3)c2n1 [B1, 3-(4-Isopropoxyphenyl)-5-(2-methylquinolin-8-yl)-1,2,4-oxadiazole]	< 20	< 20	B′ (B′ represents an increase between 20 to 50%)
Cc1ccc2cccc(NCc3cc(Br)cs3)c2n1 [C2, N-((4-Bromothiophen-2-yl)methyl)-2-methylquinolin-8-amine]	< 20	< 20	B′ (B′ represents an increase between 20 to 50%)
Cc1ccc2cccc(NCc3ccc(OC(C)C)cc3)c2n1 [C1, N-((4-Isopropoxyphenyl)methyl)-2-methylquinolin-8-amine]	< 20	< 20	B′ (B′ represents an increase between 20 to 50%)
Cc1ccc2cccc(-c3nc(-c4ccc(Br)s4)no3)c2n1 [B2, 3-(5-Bromothiophen-2-yl)-5-(2-methylquinolin-8-yl)-1,2,4-oxadiazole]	< 20	< 20	B′ (B′ represents an increase between 20 to 50%)

Further lines, with some results ahead:

EC50 (SERCA) [µM]	Structure (SMILES)	EC50 [1] [µM]	Increase in Vmax at 10 μM (SERCA)
< 20	Cc1ccc2cccc(NS(=O)(=O)c3ccc(OC(C)C)cc3)c2n1 [D1, N-(2-Methylquinolin-8-yl)-5-isopropoxyphenyl-2-sulfonamide]	< 20	C′ (C′ represents an increase no greater than 20%)
< 20	Cc1ccc2cccc(NS(=O)(=O)c3ccc(Br)s3)c2n1 [D3, 5-Bromo-N-(2-methylquinolin-8-yl)thiophene-2-sulfonamide]	< 20	B′ (B′ represents an increase between 20 to 50%)
< 20	Cc1ccc2cccc(NS(=O)(=O)c3cc(Br)cs3)c2n1 [D2, 4-Bromo-N-(2-methylquinolin-8-yl)thiophene-2-sulfonamide]	< 20	B′ (B′ represents an increase between 20 to 50%)
